Patent US12129487B2, “Method to obtain lymphoid progenitors” (INSERM (Institute National de la Santé et de la Recherche …, priority 2017, dated 2024)

Assays:
LSK SLAM (HSCs) or MPPs = experiment: In vitro differentiation assay of purified LSK SLAM or MPPs in cytokine-supplemented feeder-free media; assay type: cell-based, mouse
MPPs = experiment: Impact of CXCL12 concentrations on lymphoid commitment of purified MPPs in vitro; assay type: cell-based, mouse; details: WT MPPs, CXCL12 1 to 1,000 ng/ml at start, day 4 (FIG. 3)
Method: Purified MPPs were seeded at 450 cells into a 96-well tissue culture plate in DMEM medium supplemented with 10% FBS, 1% penicillin, and the following cytokines: mouse SCF (50 ng/mL), mouse IL-3 (10 ng/mL), human IL-6 (10 ng/mL), mouse IL-7 (5 ng/mL), and human Flt3 (5 ng/mL). Different concentrations of CXCL12 ranging from 1 to 1,000 ng/ml were added at the start of the culture. Cells were cultured at 37° C. in a humidified atmosphere containing 5% CO2, and were harvested after 4 days of culture to analyze HSPCs by flow cytometry.

Description for circulating HSPCs: One hour later, peripheral blood was harvested, analyzed by flow cytometry and tested for CFU-C assays.

## CXCL12: C-X-C motif chemokine 12, natural ligand of CXCR4, added to the culture medium
LSK SLAM (HSCs) or MPPs; 100 ng/mL added at start of culture of MPPs, regardless of Cxcr4 genotype, less pronounced among mutant cells
  appearance of LMPPs: promoted the appearance of LMPPs
LSK SLAM (HSCs) or MPPs; 100 ng/mL added at start of culture, mutant cells, days 2 and 4 (FIGS. 1 and 2)
  proportions and numbers of Cxcr4 1013-bearing MPPs: further enhanced
MPPs
  myeloid-biased MPP2 proportions and numbers: decrease
  myeloid-biased MPP3 proportions and numbers: decrease
  proportions and absolute numbers of MPPs: significant and dose-dependent increase
  proportions and absolute numbers of lymphoid-biased MPP4: significant and dose-dependent increase

## c1cc(CN2CCCNCCNCCCNCC2)ccc1CN1CCCNCCNCCCNCC1 [AMD3100]
Circulating HSPCs; WT mice, single intra-peritoneal injection (5 mg/kg), one hour after injection, blood
  absolute numbers of circulating HSPCs: significant increase
Circulating HSPCs; mutant (Cxcr4 1013-bearing) mice, single intra-peritoneal injection, one hour, reaching that of untreated WT mice
  absolute numbers of HSPCs in the blood: increased
